# Measurements from patent publication US20240261272A1, “LPA1 ANTAGONISTS FOR TREATING INTERSTITIAL LUNG DISEASE” (Bristol-Myers Squibb Company, priority 2022, published 2024).
# Assays:
# Assay type in all cases: in vivo, human
# [1] = Phase 1 Part A single ascending dose (SAD) study in healthy participants: safety, blood pressure; set-up: Mean DBP: unit not given here
# Procedure: (§1) The study was performed in 3 parts in 112 healthy male and female participants, including 24 Japanese participants. Female participants were to be not of childbearing potential. The present study was designed to evaluate the safety and tolerability, PK, and exploratory PD of an oral suspension of Compound A. Parts A and B (Cohort B1 only) enrolled healthy participants and was conducted at a site in The Netherlands and Part B (Cohort B2 to B5) enrolled healthy non-Japanese participants and was conducted at a site in the United Kingdom (UK). Part C enrolled healthy Japanese participants and was conducted at the same site in the UK.
# Part A was an SAD study in a planned number of 6 sequential dose escalation cohorts (3, 10, 30, 100, 150, or 250 mg) of 8 healthy participants (6 active+2 placebo) each, under fasted conditions. Eligible participants in Part A (excluding those in Cohort A7 [food effect (FE)/pH cohort]) received a single administration of study drug (Compound A or placebo) under fasted conditions. In Cohort A1 to Cohort A6, sentinel dosing was employed (1 active+1 placebo, followed after 48 hours by the remaining participants of the cohort [5 active+1 placebo]). […] In addition to the 6 ascending dose cohorts, a cohort of 6 healthy participants (Cohort A7; 6 active, 100 mg Compound A) was included to assess the effect of food and pH on the bioavailability of Compound A in a 3-period, open-label, fixed-sequence, crossover design (FE/pH cohort).
# (§2) Physical examinations, vital sign measurements (including orthostasis testing in Cohort A6, Cohort B3 to B5, and C1 to C3 at selected time points), 12-lead electrocardiogram (ECG), and clinical laboratory evaluations were performed at selected times throughout the study. In addition, Holter monitoring was performed for the first 24 hours post dose on Day 1 in Part A (not in FE/pH cohort), and also for the first 24 hours post dose on Day 1 and Day 14 in Parts B and C. Participants were closely monitored for adverse events (AEs). Blood samples were collected for up to 14 days (follow-up visit) after (last) study drug administration for PK analysis. In addition, blood and urine were collected for exploratory biomarker assessments and for biobanking of samples for potential analyses. Urine was collected for potential PK analysis for up to 96 hours after a single dose of Compound A or placebo was administered in the SAD part, and for up to 24 hours after the first (morning) dose of study drug on Day 1 and for up to 24 hours after the last (morning) dose of study drug on Day 14 in the MAD parts.
# participants with PPF = assay: Phase 2 study, PPF cohort: efficacy (rate of FVC decline in % of predicted, FVC); settings: for Relative Reduction: table title, dose not given
# Procedure: A total of 123 participants with PPF were randomized. Participants (age ≥21 years) were randomized (1:1:1) to receive 30 mg or 60 mg Compound A or PBO twice daily for 26 weeks. […] Immunosuppressive medications (mycophenolate mofetil, mycophenolic acid, azathioprine and/or tacrolimus) were permitted only if dosing is stable for ≥6 months prior to screening. If receiving antifibrotic agents pirfenidone or nintedanib, patients had to receive a stable dosage for ≥3 months prior to screening and during the screening period; if not receiving pirfenidone or nintedanib, patients had to be naive to both drugs or not have received either 4 weeks prior to Day 1. A total of 47 (38.2%) subjects were receiving antifibrotic treatment (with or without immunosuppression therapy). Of those subjects, 34 were being treated with nintedanib and 13 with pirfenidone. Participants were stratified by usual interstitial pneumonia (UIP) pattern (presence versus absence) and background therapy (antifibrotics +/−ILD-targeted immunosuppression versus ILD-targeted immunosuppression alone versus none).UIP pattern was present in 52% of subjects and unclassifiable ILD was he most common disease categorization.
# The study was not powered to detect statistical significance (no formal testing). No target effect size was defined in the study design. There were two estimand approaches for analysis: Treatment Policy: Effect of treatment with dose reduction as part of treatment regimen.
# While-On Treatment: Effect of treatment without dose reduction.
# The main efficacy endpoint, rate of FVC decline (in % of predicted) from baseline to wk-26 in the PPF cohort, was estimated using a linear mixed-effects model utilizing all FVC timepoints. It was analyzed under a primary estimand (utilizing all data, treatment policy strategy), and under supplementary estimand (utilizing all data up to the point of dose reduction, while-on-treatment strategy). Analysis was performed in the overall population as well as in sub-groups by 1) background anti-fibrotic treatment or not 2) UIP radiographic pattern (presence or not). The mean baseline ppFVC was 66.700 for the PPF cohort.
# [2] = Phase 1 Part C MAD study in healthy Japanese participants: blood pressure; settings: for Maximum of Mean (±SD) Reduction in DBP from Baseline (Baseline): MAD Japanese Part C
# Procedure: as §1
# Part C was a MAD study in 3 sequential dose escalation cohorts (30 mg BID, 60 mg BID, and 90 mg BID) of 8 healthy Japanese participants (6 active+2 placebo) each. Eligible participants in Cohorts C1 to C3 received study drug (Compound A or placebo) administered orally for 14 days.
# as §2
compound,measurement,setting,value
"CCCN(C)C(=O)OCc1c(-c2ccc(O[C@H]3CCC[C@H](C(=O)O)C3)c(C)n2)nnn1C [Compound A, (1S,3S)-3-((2-methyl-6-(1-methyl-5-(((methyl(propyl)carbamoyl)-oxy)methyl)-1H-1,2,3-triazol-4-yl)pyridin-3-yl)oxy)cyclohexane-1-carboxylic acid]",Mean DBP,"[1]; 100 mg Fasted + Famotidine, D 1 2 h",67.2
same,Mean DBP,"[1]; 100 mg Fasted + Famotidine, D 1 4 h",65.3
same,Mean DBP,"[1]; 100 mg Fasted + Famotidine, D 1 8 h",63.2
same,Mean DBP,"[1]; 100 mg Fasted + Famotidine, D 2 24 h",71.7
same,Mean DBP,"[1]; 100 mg Fasted, D 1 2 h",67.2
same,Mean DBP,"[1]; 100 mg Fasted, D 1 4 h",64.2
same,Mean DBP,"[1]; 100 mg Fasted, D 1 8 h",63.0
same,Mean DBP,"[1]; 100 mg Fasted, D 2 24 h",69.3
same,Mean DBP,"[1]; 100 mg Fed, D 1 2 h",57.2
same,Mean DBP,"[1]; 100 mg Fed, D 1 4 h",58.2
same,Mean DBP,"[1]; 100 mg Fed, D 1 8 h",58.8
same,Mean DBP,"[1]; 100 mg Fed, D 2 24 h",69.3
same,Mean DBP,"[1]; SAD 3 mg, D 1 2 h",68.3
same,Mean DBP,"[1]; SAD 3 mg, D 1 4 h",69.5
same,Mean DBP,"[1]; SAD 3 mg, D 1 8 h",68.0
same,Mean DBP,"[1]; SAD 3 mg, D 2 24 h",68.7
same,Mean DBP,"[1]; SAD 10 mg, D 1 2 h",67.7
same,Mean DBP,"[1]; SAD 10 mg, D 1 4 h",68.7
same,Mean DBP,"[1]; SAD 10 mg, D 1 8 h",63.0
same,Mean DBP,"[1]; SAD 10 mg, D 2 24 h",71.7
same,Mean DBP,"[1]; SAD 30 mg, D 1 2 h",66.2
same,Mean DBP,"[1]; SAD 30 mg, D 1 4 h",65.2
same,Mean DBP,"[1]; SAD 30 mg, D 1 8 h",65.2
same,Mean DBP,"[1]; SAD 30 mg, D 2 24 h",71.0
same,Mean DBP,"[1]; SAD 100 mg, D 1 2 h",59.0
same,Mean DBP,"[1]; SAD 100 mg, D 1 4 h",58.7
same,Mean DBP,"[1]; SAD 100 mg, D 1 8 h",56.3
same,Mean DBP,"[1]; SAD 100 mg, D 2 24 h",66.0
same,Mean DBP,"[1]; SAD 150 mg, D 1 2 h",58.2
same,Mean DBP,"[1]; SAD 150 mg, D 1 4 h",56.0
same,Mean DBP,"[1]; SAD 150 mg, D 1 8 h",57.8
same,Mean DBP,"[1]; SAD 150 mg, D 2 24 h",66.2
same,dose-limiting events (in words),"[1]; SAD Cohort A6, 250 mg, sentinel participants",dose-limiting events observed in a sentinel participant
same,effect on SBP and DBP (in words),[1]; SAD cohorts,"decreased SBP and DBP dose dependently, reversibly, and mostly asymptomatically"
same,safety and tolerability (in words),[1]; single and multiple dose oral administration to healthy participants,generally safe and well tolerated
same,dose response (in words),"participants with PPF; PPF cohort, 30 mg and 60 mg",Clear dose response
same,mean observed change from baseline in ppFVC percentage and FVC versus placebo (in words),"participants with PPF; PPF cohort, 30 mg and 60 mg, FIGS. 10 and 11",show improvement over placebo at week 8
same,consistency of efficacy across sub-groups (in words),"participants with PPF; PPF cohort, irrespective of background antifibrotics or of UIP pattern",Efficacy consistent in all sub-groups
same,"FVC (% Predicted) Rate of Decline, Difference","participants with PPF; PPF, 30 mg - placebo, UIP Present, Primary Estimand",0.88 % Predicted
same,"FVC (% Predicted) Rate of Decline, Slope","participants with PPF; PPF, 30 mg, Not Receiving Antifibrotic Treatment, Supplementary Estimand",−2.83 % Predicted
same,"FVC (% Predicted) Rate of Decline, Slope","participants with PPF; PPF, 30 mg, Overall Population, Primary Estimand - Treatment Policy",−2.7 % Predicted
same,"FVC (% Predicted) Rate of Decline, Slope","participants with PPF; PPF, 30 mg, Receiving Antifibrotic Treatment, Supplementary Estimand",−1.8 % Predicted
same,"FVC (% Predicted) Rate of Decline, Slope","participants with PPF; PPF, 30 mg, UIP Absent, Supplementary Estimand",−2.24 % Predicted
same,"FVC (% Predicted) Rate of Decline, Slope","participants with PPF; PPF, 30 mg, UIP Present, Primary Estimand",−3.07 % Predicted
same,"FVC (% Predicted) Rate of Decline, Difference","participants with PPF; PPF, 60 mg - placebo, UIP Absent, Supplementary Estimand",3.8 % Predicted
same,"FVC (% Predicted) Rate of Decline, Slope","participants with PPF; PPF, 60 mg, Not Receiving Antifibrotic Treatment, Supplementary Estimand",−1.56 % Predicted
same,"FVC (% Predicted) Rate of Decline, Slope","participants with PPF; PPF, 60 mg, Overall Population, Supplementary Estimand - While On Treatment",−1.3 % Predicted
same,"FVC (% Predicted) Rate of Decline, Slope","participants with PPF; PPF, 60 mg, Receiving Antifibrotic Treatment, Supplementary Estimand",−1.1 % Predicted
same,"FVC (% Predicted) Rate of Decline, Slope","participants with PPF; PPF, 60 mg, UIP Absent, Supplementary Estimand",−0.7 % Predicted
same,"FVC (% Predicted) Rate of Decline, Slope","participants with PPF; PPF, 60 mg, UIP Present, Primary Estimand",−1.46 % Predicted
same,"Treatment difference 60 mg v placebo, rate of decline in ppFVC baseline to Week 26","participants with PPF; PPF, Non UIP subgroup",3.80
same,Relative Reduction,"participants with PPF; PPF, Not Receiving Antifibrotic Treatment, Primary Estimand",Estimand - Treatment Policy (Relative Reduction = 68.5%)
same,Relative Reduction,"participants with PPF; PPF, Not Receiving Antifibrotic Treatment, Supplementary Estimand",Estimand - While on Treatment (Relative Reduction = 62.6%)
same,Relative Reduction,"participants with PPF; PPF, Receiving Antifibrotic Treatment, Primary Estimand",Estimand - Treatment Policy (Relative Reduction = 85%)
same,Relative Reduction,"participants with PPF; PPF, Receiving Antifibrotic Treatment, Supplementary Estimand",Estimand - While on Treatment (Relative Reduction = 74.9%)
same,Relative Reduction,"participants with PPF; PPF, UIP Absent, Primary Estimand",Policy Strategy (Relative Reduction = 83.6%)
same,Relative Reduction,"participants with PPF; PPF, UIP Absent, Supplementary Estimand",While on Treatment (Relative Reduction = 84.4%)
same,Relative Reduction,"participants with PPF; PPF, UIP Present, Primary Estimand",Policy Strategy (Relative Reduction = 63%)
same,Relative Reduction,"participants with PPF; PPF, UIP Present, Supplementary Estimand",While on Treatment (Relative Reduction = 54%)
same,BP reduction dose dependence (in words),[2]; Japanese MAD cohorts,no clear Compound A dose-dependent BP reduction trend
same,Maximum of Mean (±SD) Reduction in DBP from Baseline (Baseline),[2]; 30 mg BID (C1),8.8 ± 5.12 mmHg
same,Maximum of Mean (±SD) Reduction in DBP from Baseline (Baseline),[2]; 60 mg BID (C2),8.2 ± 10.40 mmHg
same,Maximum of Mean (±SD) Reduction in DBP from Baseline (Baseline),[2]; 90 mg BID (C2),8.0 ± 8.22 mmHg
